# Laboratory results: patent US20250241894A1, “TREATMENT OF MENTAL DISORDERS” (GH RESEARCH IRELAND LIMITED, priority 2022, published 2025)
# System: patients with postpartum depression (PPD)
# Experiment: Open-label clinical trial of inhaled 5-MeO-DMT (single-day IDR) in postpartum depression; one patient so far, received 6 mg then 12 mg
# Experimental: The single-arm, open-label clinical trial will involve 15 adult female patients with clinically diagnosed postpartum depression (PPD).
# The second dose (12 mg) will only be administered if: • a. […] The 6 mg dose was safe and well-tolerated according to the investigator, • c. Any psychoactive effects (PsE) of the prior dose have subsided, and • d. Pre-dose vital parameters and forced expiratory volume in one second (FEV1) are in normal range, or if outside of the normal range, are not clinically significant according to the investigator. • 3. Similarly, a third dose (18 mg) will only be administered if: • a. […] The 12 mg dose was safe and well-tolerated according to the investigator, and • c. Any PsE of the prior dose have subsided, and • d. Pre-dose vital parameters and forced expiratory volume in one second (FEV1) are in normal range, or if outside of the normal range, are not clinically significant according to the investigator.
# The patients will be assessed for a peak psychedelic experience (based on a patient-scored visual analogue scale, the PE scale), sedation, and other endpoints after dosing.
# Follow-up visits are planned for Day 1, and Day 7 after the dosing day.
# The following criteria must be met by all patients considered for clinical trial participation: • 1. Is female and in the age range between 18 and 45 years (inclusive) at screening. • 2. Has a body mass index (BMI) in the range of 18.5 and 35 kg/m^2 (inclusive) at screening. • 3. Meets the trial criteria for PPD as assessed by a trial psychiatrist or registered psychologist: • a. Diagnosis of Major Depressive Disorder without psychotic features, confirmed by the Mini-International Neuropsychiatric Interview (MINI), with peri-partum onset that began no earlier than gestation and no later than the first 4 weeks postpartum. • b. Has a Montgomery-Åsberg Depression Rating Scale (MADRS) total score of equal to or greater than 28 at screening and pre-dose on Day 0. • 6. […] Patients must have a negative pregnancy test at screening and on the pre-test day (Day-1). • 5. Is willing to delay start of other antidepressant or anxiety medication until after the end of the trial at Day 7 and agrees to keep any psychotherapy unchanged during the trial.
compound,measurement,setting,value
COc1ccc2[nH]cc(CCN(C)C)c2c1 [5-MeO-DMT],"ECG (3 hours), safety laboratory analyses (7 days), CADSS (3 hours, 1 day, 7 days)",n=1,unremarkable
same,MADRS response (>=50% improvement) and remission (total <=10) criteria,n=1,fulfilled standard criteria for MADRS response
same,Onset of clinical response,n=1,≤ 2 h
same,Time to clinical remission,n=1,≤ 2 h
same,Tolerability of inhalation procedure,n=1,well tolerated with no inhalation-related adverse events
same,Total MADRS improvement,"n=1, 2 hr",24
same,Total MADRS score,"n=1, 2 hr, baseline 29",5
same,"Reported adverse events (cramping left abdominal pain, headache)","n=1, Day 0","mild, short-lasting and resolved spontaneously"
same,BPRS Tension improvement,"n=1, Day 1",5
same,Total MADRS improvement,"n=1, Day 1",29
same,Total MADRS score,"n=1, Day 1, baseline 29",0
same,Total MADRS improvement,"n=1, Day 7",28
same,BIMF functional domain Adjustment score,"n=1, Day 7, Day 0 5, maximum 12",6
same,BIMF functional domain Self-Care score,"n=1, Day 7, Day 0 9, maximum 18",13
same,BIMF functional domain Infant Care score,"n=1, Day 7, Day 0 12, maximum 12",12
same,BIMF functional domain Mother-Child Interaction score,"n=1, Day 7, Day 0 15, maximum 18",17
same,BIMF functional domain Social Support score,"n=1, Day 7, Day 0 17, maximum 18",18
same,BIMF functional domain Management score,"n=1, Day 7, Day 0 28, maximum 36",33
same,BIMF functional domain Psychological Well-being score,"n=1, Day 7, Day 0 44, maximum 60",53
same,"BIMF item 19 (As time goes on, I am getting better at taking care of my baby) score","n=1, Day 7, Day 0 score 0",1
same,BIMF item 16 (I worry about how other people judge me (as a mother)) score,"n=1, Day 7, Day 0 score 3",5
same,BIMF item 13 (I am taking good care of my physical needs) score,"n=1, Day 7, Day 0 score 4",5
same,BIMF item 5 (I am able to relax and enjoy time with my baby) score,"n=1, Day 7, Day 0 score 5",6
same,BIMF item 9 (I am getting enough encouragement from other people) score,"n=1, Day 7, Day 0 score 5",6
same,BIMF item 10 (I trust my own feelings (instincts) when it comes to taking care of my baby) score,"n=1, Day 7, Day 0 score 5",6
same,BIMF item 11 (I take a little time each week to do something for myself) score,"n=1, Day 7, Day 0 score 5",6
same,BIMF item 17 (I am able to take care of my baby and my other responsibilities) score,"n=1, Day 7, Day 0 score 5",5
same,BIMF item 3 (I am comfortable with the way I've chosen to feed my baby) score,"n=1, Day 7, Day 0 score 6",6
same,BIMF item 6 (There are people in my life that I can trust to care for my baby when I need a break) score,"n=1, Day 7, Day 0 score 6",6
same,BIMF item 8 (I am getting enough adult interaction) score,"n=1, Day 7, Day 0 score 6",6
same,BIMF item 12 (I am taking good care of my baby's physical needs) score,"n=1, Day 7, Day 0 score 6",6
same,BIMF item 14 (I make good decisions about my baby's health and well being) score,"n=1, Day 7, Day 0 score 6",6
same,BIMF item 20 (I am satisfied with the job I am doing as a new mother) score,"n=1, Day 7, Day 0 score 6",5
same,Total MADRS score,"n=1, Day 7, baseline 29",1
same,BIMF total score improvement,"n=1, Day 7, from 92",14%
same,BIMF TOTAL Δ,"n=1, Day 7 vs Day 0",13
same,BIMF functional domain Adjustment % Improvement,"n=1, Day 7 vs Day 0",20.00%
same,BIMF functional domain Adjustment Δ,"n=1, Day 7 vs Day 0",1
same,BIMF functional domain Infant Care % Improvement,"n=1, Day 7 vs Day 0",0.00%
same,BIMF functional domain Infant Care Δ,"n=1, Day 7 vs Day 0",0
same,BIMF functional domain Management % Improvement,"n=1, Day 7 vs Day 0",18%
same,BIMF functional domain Management Δ,"n=1, Day 7 vs Day 0",5
same,BIMF functional domain Mother-Child Interaction Δ,"n=1, Day 7 vs Day 0",2
same,BIMF functional domain Psychological Well-being Δ,"n=1, Day 7 vs Day 0",9
same,BIMF functional domain Self-Care % Improvement,"n=1, Day 7 vs Day 0",44%
same,BIMF functional domain Self-Care Δ,"n=1, Day 7 vs Day 0",4
same,BIMF functional domain Social Support Δ,"n=1, Day 7 vs Day 0",1
same,BIMF item 1 (I am a good mother) Δ,"n=1, Day 7 vs Day 0",0
same,BIMF item 2 (I feel rested) Δ,"n=1, Day 7 vs Day 0",2
same,BIMF item 3 (I am comfortable with the way I've chosen to feed my baby) Δ,"n=1, Day 7 vs Day 0",0
same,BIMF item 4 (My baby and I understand each other) Δ,"n=1, Day 7 vs Day 0",0
same,BIMF item 5 (I am able to relax and enjoy time with my baby) Δ,"n=1, Day 7 vs Day 0",1
same,BIMF item 6 (There are people in my life that I can trust to care for my baby when I need a break) Δ,"n=1, Day 7 vs Day 0",0
same,BIMF item 8 (I am getting enough adult interaction) Δ,"n=1, Day 7 vs Day 0",0
same,BIMF item 9 (I am getting enough encouragement from other people) Δ,"n=1, Day 7 vs Day 0",1
same,BIMF item 10 (I trust my own feelings (instincts) when it comes to taking care of my baby) Δ,"n=1, Day 7 vs Day 0",1
same,BIMF item 11 (I take a little time each week to do something for myself) Δ,"n=1, Day 7 vs Day 0",1
same,BIMF item 12 (I am taking good care of my baby's physical needs) Δ,"n=1, Day 7 vs Day 0",0
same,BIMF item 13 (I am taking good care of my physical needs) Δ,"n=1, Day 7 vs Day 0",1
same,BIMF item 14 (I make good decisions about my baby's health and well being) Δ,"n=1, Day 7 vs Day 0",0
same,BIMF item 15 (My baby and I are getting into a routine) Δ,"n=1, Day 7 vs Day 0",1
same,BIMF item 16 (I worry about how other people judge me (as a mother)) Δ,"n=1, Day 7 vs Day 0",2
same,BIMF item 17 (I am able to take care of my baby and my other responsibilities) Δ,"n=1, Day 7 vs Day 0",0
same,BIMF item 18 (Anxiety or worry often interferes with my mothering ability) Δ,"n=1, Day 7 vs Day 0",3
same,"BIMF item 19 (As time goes on, I am getting better at taking care of my baby) Δ","n=1, Day 7 vs Day 0",1
same,BIMF item 20 (I am satisfied with the job I am doing as a new mother) Δ,"n=1, Day 7 vs Day 0",−1
same,BPRS Tension improvement,"n=1, Discharge",5
same,Vital parameters,"n=1, shortly after administration","temporary, clinically non-relevant increase in heart rate and blood pressure"
